{"source": "PubChem BioAssay (NCI)", "test_in_all_cases": "NCI anticancer screen, dose series, 384-well format", "key": {"NCI-H522 lung": {"test_system": "NCI-H522 lung"}, "ACHN renal": {"test_system": "ACHN renal"}, "NCI-H460 NSCLC": {"test_system": "NCI-H460 NSCLC"}, "UACC-62 melanoma": {"test_system": "UACC-62 melanoma"}, "MOLT-4 leukemia": {"test_system": "MOLT-4 leukemia"}, "HCC-2998 colon": {"test_system": "HCC-2998 colon"}, "MCF7 breast": {"test_system": "MCF7 breast"}, "SNB-19 CNS": {"test_system": "SNB-19 CNS"}, "OVCAR-8 ovarian": {"test_system": "OVCAR-8 ovarian"}, "TK-10 renal": {"test_system": "TK-10 renal"}, "K-562 leukemia": {"test_system": "K-562 leukemia"}, "DU-145 prostate": {"test_system": "DU-145 prostate"}, "HL-60(TB) leukemia": {"test_system": "HL-60(TB) leukemia"}, "RXF 393 renal": {"test_system": "RXF 393 renal"}, "SF-295 CNS": {"test_system": "SF-295 CNS"}, "LOX IMVI melanoma": {"test_system": "LOX IMVI melanoma"}, "M14 melanoma": {"test_system": "M14 melanoma"}, "HT29 colon": {"test_system": "HT29 colon"}, "UO-31 renal": {"test_system": "UO-31 renal"}, "OVCAR-3 ovarian": {"test_system": "OVCAR-3 ovarian"}, "CAKI-1 renal": {"test_system": "CAKI-1 renal"}, "MDA-MB-231 breast": {"test_system": "MDA-MB-231 breast"}, "U251 glioblastoma": {"test_system": "U251 glioblastoma"}, "A549 NSCLC": {"test_system": "A549 NSCLC"}, "NCI-H23 lung": {"test_system": "NCI-H23 lung"}, "HCT-116 colon": {"test_system": "HCT-116 colon"}, "OVCAR-5 ovarian": {"test_system": "OVCAR-5 ovarian"}, "COLO 205 colon": {"test_system": "COLO 205 colon"}, "SK-MEL-2 melanoma": {"test_system": "SK-MEL-2 melanoma"}, "MDA-MB-468 breast": {"test_system": "MDA-MB-468 breast"}}, "note": "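Abbreviation: GI50, concentration required for 50% inhibition of growth. TGI denotes the concentration required for complete inhibition of growth.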", "data": [{"molecule": "COc1cc2ncnc3c2cc1OCCCCCN(C)Cc1ccc(Br)cc1N3", "values": [{"measurement": "TGI", "setting": "NCI-H522 lung", "result": 2.97, "unit": "µM"}, {"measurement": "GI50", "setting": "ACHN renal", "result": 0.263, "unit": "µM"}, {"measurement": "TGI", "setting": "ACHN renal", "result": "> 19.9", "unit": "µM"}, {"measurement": "GI50", "setting": "NCI-H460 NSCLC", "result": 3.37, "unit": "µM"}, {"measurement": "TGI", "setting": "NCI-H460 NSCLC", "result": "> 100", "unit": "µM"}, {"measurement": "GI50", "setting": "UACC-62 melanoma", "result": 2.16, "unit": "µM"}, {"measurement": "TGI", "setting": "UACC-62 melanoma", "result": "> 100", "unit": "µM"}, {"measurement": "GI50", "setting": "MOLT-4 leukemia", "result": 2.15, "unit": "µM"}, {"measurement": "GI50", "setting": "HCC-2998 colon", "result": 5.37, "unit": "µM"}, {"measurement": "TGI", "setting": "HCC-2998 colon", "result": "> 100", "unit": "µM"}, {"measurement": "GI50", "setting": "MCF7 breast", "result": 8.25, "unit": "µM"}, {"measurement": "TGI", "setting": "MCF7 breast", "result": "> 100", "unit": "µM"}, {"measurement": "GI50", "setting": "SNB-19 CNS", "result": "> 100", "unit": "µM"}, {"measurement": "TGI", "setting": "SNB-19 CNS", "result": "> 100", "unit": "µM"}, {"measurement": "GI50", "setting": "OVCAR-8 ovarian", "result": 3.02, "unit": "µM"}, {"measurement": "TGI", "setting": "OVCAR-8 ovarian", "result": "> 100", "unit": "µM"}, {"measurement": "GI50", "setting": "TK-10 renal", "result": 0.352, "unit": "µM"}, {"measurement": "TGI", "setting": "TK-10 renal", "result": "> 100", "unit": "µM"}, {"measurement": "GI50", "setting": "K-562 leukemia", "result": 3.88, "unit": "µM"}, {"measurement": "TGI", "setting": "K-562 leukemia", "result": "> 100", "unit": "µM"}, {"measurement": "GI50", "setting": "DU-145 prostate", "result": 1.52, "unit": "µM"}, {"measurement": "TGI", "setting": "DU-145 prostate", "result": "> 100", "unit": "µM"}, {"measurement": "GI50", "setting": "HL-60(TB) leukemia", "result": 1.66, "unit": "µM"}, {"measurement": "TGI", "setting": "HL-60(TB) leukemia", "result": 3.28, "unit": "µM"}, {"measurement": "GI50", "setting": "RXF 393 renal", "result": 3.22, "unit": "µM"}, {"measurement": "TGI", "setting": "RXF 393 renal", "result": "> 100", "unit": "µM"}, {"measurement": "GI50", "setting": "SF-295 CNS", "result": 7.08, "unit": "µM"}, {"measurement": "TGI", "setting": "SF-295 CNS", "result": "> 100", "unit": "µM"}, {"measurement": "GI50", "setting": "LOX IMVI melanoma", "result": 3.67, "unit": "µM"}, {"measurement": "TGI", "setting": "LOX IMVI melanoma", "result": "> 100", "unit": "µM"}, {"measurement": "GI50", "setting": "M14 melanoma", "result": 3.82, "unit": "µM"}, {"measurement": "TGI", "setting": "M14 melanoma", "result": "> 100", "unit": "µM"}, {"measurement": "GI50", "setting": "HT29 colon", "result": "> 20.9", "unit": "µM"}, {"measurement": "TGI", "setting": "HT29 colon", "result": "> 100", "unit": "µM"}, {"measurement": "GI50", "setting": "UO-31 renal", "result": 1.45, "unit": "µM"}, {"measurement": "TGI", "setting": "UO-31 renal", "result": "> 100", "unit": "µM"}, {"measurement": "GI50", "setting": "OVCAR-3 ovarian", "result": 1.07, "unit": "µM"}, {"measurement": "TGI", "setting": "OVCAR-3 ovarian", "result": "> 100", "unit": "µM"}, {"measurement": "GI50", "setting": "CAKI-1 renal", "result": 1.36, "unit": "µM"}, {"measurement": "TGI", "setting": "CAKI-1 renal", "result": "> 100", "unit": "µM"}, {"measurement": "GI50", "setting": "MDA-MB-231 breast", "result": 7.15, "unit": "µM"}, {"measurement": "TGI", "setting": "MDA-MB-231 breast", "result": "> 100", "unit": "µM"}, {"measurement": "GI50", "setting": "U251 glioblastoma", "result": 5.7, "unit": "µM"}, {"measurement": "TGI", "setting": "U251 glioblastoma", "result": "> 100", "unit": "µM"}, {"measurement": "GI50", "setting": "A549 NSCLC", "result": 2.64, "unit": "µM"}, {"measurement": "TGI", "setting": "A549 NSCLC", "result": "> 100", "unit": "µM"}, {"measurement": "GI50", "setting": "NCI-H23 lung", "result": 4.73, "unit": "µM"}, {"measurement": "TGI", "setting": "NCI-H23 lung", "result": "> 100", "unit": "µM"}, {"measurement": "GI50", "setting": "HCT-116 colon", "result": 3.8, "unit": "µM"}, {"measurement": "TGI", "setting": "HCT-116 colon", "result": "> 100", "unit": "µM"}, {"measurement": "GI50", "setting": "OVCAR-5 ovarian", "result": 3.95, "unit": "µM"}, {"measurement": "TGI", "setting": "OVCAR-5 ovarian", "result": "> 100", "unit": "µM"}, {"measurement": "GI50", "setting": "COLO 205 colon", "result": "> 21.1", "unit": "µM"}, {"measurement": "TGI", "setting": "COLO 205 colon", "result": "> 100", "unit": "µM"}, {"measurement": "GI50", "setting": "SK-MEL-2 melanoma", "result": 2.22, "unit": "µM"}, {"measurement": "TGI", "setting": "SK-MEL-2 melanoma", "result": "> 22", "unit": "µM"}, {"measurement": "GI50", "setting": "MDA-MB-468 breast", "result": 0.0909, "unit": "µM"}, {"measurement": "TGI", "setting": "MDA-MB-468 breast", "result": 0.356, "unit": "µM"}]}]}
